From US20220193185A1, “COMBINATION OF SYNTHETIC PEPTIDES WITH AFFINITY TO THE TGF-ß RECEPTOR AND WITH AFFINITY TO THE IL-10 RECEPTOR, PHARMACEUTICAL COMPOSITION AND THEIR USE AS IMMUNOMODULATORS IN THE TREATMENT OF AUTOIMMUNE, INFLAMMATORY OR ALLERGIC DISEASES” (Universidade Federal de Uberlândia, priority 2019, published 2022)
Bridges are numbered along the chain shown (N, C = ends). Where no end group is shown, it is not given here.

Experiments:
[1] = test system: TGF-β1 receptor on A549 cells; experiment: ELISA on cells of the A549 line using anti-TGF-β1 antibody; type: binding, human
Protocol: The peptides described in this patent application were selected using the Phage Display (PD) methodology. The selection was performed by evaluating the ability of said peptides to recognize the TGF-β1 receptor on A549 cells, using an ELISA assay. MaxiSorp 96-well microtiter plates were coated with 1×10^6 cells diluted in PBS and incubated overnight at 4° C. Cells were blocked with 3% PBS-BSA for 1 h at 37° C., washed once with PBS and incubated with […] of each TGF-β1 mimetic peptide or 5 ng/ml of recombinant TGF-β1 for 1 h at 37° C. After washing, the plate was incubated for 1 h at 37° C. with anti-TGF-β1 antibody. The plate was washed and incubated with HRP-labeled anti-human IgG antibody for 1 h at 37° C. After washing, TMB substrate solution was added to the plate; the reaction was stopped by adding the 2N H2SO4 solution and read at 492 nm in a microplate reader.
To investigate whether the synthesized peptides could bind to cell receptors, an ELISA assay was performed on cells of the A549 line using commercial anti-TGF-β1 antibody.

[2] = aggregation behavior in solution by Dynamic Light Scattering (DLS); type: physicochemical; conditions: for measured hydrodynamic radius: IL-10 mimetic peptides in solution
[3] = test system: NFkB pathway; experiment: NFkB expression in Jurkat-Dual reporter cells, luciferase (IL-10 mimetic peptides); type: cell-based; conditions: without activating molecules; 12, 24 and 48 hours; different concentrations
Protocol: (§1) In order to investigate the ability of synthetic peptides with affinity to the Interleukin-10 receptor to interfere in the NFkB, IFN and TLR4 pathways, reporter cell lines were used. To analyze whether the isolated peptides (without activation molecules) could induce any type of activation, the isolated peptides were tested in cell lines during 12, 24 and 48 hours of treatment. […] As an example, FIG. 13A, FIG. 13B, and FIG. 13C show an analysis of NFkB expression after stimulation with the synthesized IL-10 receptor affinity synthetic peptides described herein. Cells were treated for 12, 24 and 48 hours with the synthesized peptides Pep 1-IL10, Pep 2-IL10, Pep 3-IL10 and Pep 4-IL10, at different concentrations, without activating molecules. Luciferase was then measured after 12 hours of treatment (FIG. 13A), 24 hours of treatment (FIG. 13B) and 48 hours of treatment (FIG. 13C). […] TNF-α (200 ng/mL) was used as a positive control.
The assay was then carried out using TNF-α as activation molecule not only in the control, but after a pretreatment with the synthesized peptides Pep 1-IL10, Pep 2-IL10, Pep 3-IL10 and Pep 4-IL10, at different concentrations. All peptides were able to modulate NFKB activation after 12, 24 and 48 hours, with different results depending on the concentrations used. […] In the assays shown by FIGS. 14 A, B and C, analysis of NFkB expression was performed in Jurkat-Dual reporter cells. Cells were treated for 1 hour with peptides and TNF-α (200 ng/ml) added. Luciferase was measured after 12 hours of treatment (FIG. 14A), 24 hours of treatment (FIG. 14B) and 48 hours of treatment (FIG. 14C).
Another assay was then performed in which cells were pretreated with TNF-α and the synthesized peptides Pep 1-IL10, Pep 2-IL10, Pep 3-IL10 and Pep 4-IL10, at different concentrations, were added later. All peptides were able to modulate NFKB activation after 12, 24 and 48 hours, with different results depending on the concentrations used. The most significant results will be described below. […] After 48 hours of treatment, Pep 1-IL-10 at a concentration of 0.001 μM (P<0.05) was the one that obtained a result with the highest statistical significance in the decrease of NFKB signaling (FIG. 15C). In the assays shown by FIGS. 15 A, B and C, analysis of NFkB expression was performed in Jurkat-Dual reporter cells. Cells were treated for 1 hour with TNF-α (200 ng/ml) and peptides were added. Luciferase was measured after 12 hours of treatment (FIG. 15A), 24 hours of treatment (FIG. 15B) and 48 hours of treatment (FIG. 15C). TNF-α (200 ng/mL) was used as a positive control and rlL-10 (recombinant Interleukin-10) (0.4 ng/mL) as a negative control. *P<0.05; **P<0.005; ***P<0.0005.

[4] = test system: IFN signaling pathway; experiment: IFN signaling pathway in Jurkat-Dual reporter cells, SEAP production; type: cell-based; conditions: after 12, 24 and 48 hours; results depend on concentration
Protocol: as §1
The most significant results will be described below. […] When cells were pretreated with IFN, although peptides at some concentrations indicated results, they were not statistically sufficient. Therefore, we cannot confirm whether they were able to interfere with pathway activation (FIGS. 17 A, B and C) in an equal or better way than the negative control (rIL-10). In the assays shown by FIGS. 16 (A, B and C) and FIGS. 17 (A, B and C), analysis of IFN expression was performed in Jurkat-Dual reporter cells. In the assays shown by FIGS. 16 A, B and C, cells were treated for 1 hour with peptides with further addition of IFN-α (104 EU/ml). Secreted Embryonic Alkaline Phosphatase (SEAP) production was measured after 12 hours of treatment (FIG. 16A), 24 hours of treatment (FIG. 16 B) and 48 hours of treatment (FIG. 16 C). In the assays shown by FIGS. 17A, B and C, cells were treated for 1 hour with IFN-α (104 EU/ml) with further addition of the peptides. SEAP production was measured after (A) 12 hours of treatment (B), 24 hours of treatment and (C) 48 hours of treatment. IFN-α (104 EU/ml) was used as a positive control and rlL-10 (0.4 ng/ml) as a negative control. *P<0.05.

[5] = test system: TFGβRII/SMAD-dependent pathway; experiment: HEK-blue-TGFβ reporter cells, SEAP production; type: cell-based; conditions: tested at 0.1, 1, 10 and 100 μM; for concentrations with statistically significant activation of the SMAD-dependent pathway (SEAP): 12 hours
Protocol: After 12 hours of stimulation (FIG. 4A), all peptides were able to bind to the receptor.
The assay was performed in such a way that approximately 2.5×10^4 cells/well (100 μL) were treated with 100 μL of all synthetic peptides at different concentrations (100 μM, 10 μM, 1 μM and 0.1 μM) while rTGF-β1 ([…]) at 100 ng/ml was used as a positive control. After incubating the cells for 12, 24 and 48 hours at 37° C. in 5% CO2, […] of supernatant was transferred to a Greiner plate to which […] of Quanti-blue solution was added. The plate was incubated for 1 hour at 37° C. in 5% CO2 and the production of SEAP (secreted alkaline phosphatase) was detected at 655 nm. All tests were performed in triplicate.

[6] = test system: TLR4 pathway; experiment: HEK-Blue hTLR4 reporter cells, SEAP production (TGF-β1 mimetic peptides); type: cell-based; conditions: peptide pretreatment 1 hour, then LPS 100 ng/mL; 12 hours
Protocol: Similar to the treatment using Jurkat cells, peptides in compositions with different concentrations were also tested in HEK cells to investigate their ability to interfere with the TLR4 pathway.
To ensure that the peptides could not induce any activation when tested alone (no pathway activation molecule) only the peptides were added into the cell line and SEAP production was measured after 12 hours of treatment (Figure not shown).
The assay was performed using HEK-Blue hTLR4 reporter cells (InvivoGen) to investigate the action of peptides in the TLR4 pathway. A total of 2.3×10^4 cells/well ([…]) was pretreated with […] of composition comprising at least one of the synthetic peptides at concentrations of 100 μM, 10 μM, 1 μM, and 0.1 μM for 1 hour at 37° C. ° C. in 5% CO2 followed by LPS stimulation at 100 ng/mL for 12 hours. The same stimuli were applied to cells pretreated with LPS at 100 ng/ml for 1 hour at 37° C. in 5% CO2, followed by stimuli with peptides at 100 μM, 10 μM, 1 μM and 0.1 μM for 12 hours. Stimuli were added in Quanti-blue medium and SEAP production was measured at 655 nm. As a control, peptides at the same concentrations were tested alone to investigate whether they could activate the TLR4 pathway and LPS was used as a positive control.

[7] = test system: NFkB pathway; experiment: NFkB expression in Jurkat cells, luciferase (TGF-β1 mimetic peptides); type: cell-based, human; conditions: for concentrations with statistically significant decrease of NFKB pathway activation vs TNF-α control: peptide pretreatment 1 hour, then TNF-α, tested at 0.1-100 μM
Protocol: Two different cell treatments were performed using Jurkat cells to analyze NFkB expression after 12, 24 and 48 hours. In the first test, Jurkat cells were treated only with peptides (no pathway activating molecule) at different concentrations to analyze the ability of each peptide to induce NFkB expression (Figure not shown). None of the tested concentrations induced any type of pathway activation.
The assay was carried out in such a way that a total of 3×10^5 cells/well ([…]) was pretreated with […] of a composition comprising one of the synthetic peptides in concentrations of 100 μM, 10 μM, 1 μM, and 0.1 μM for 1 hour at 37° C. in 5% CO2, followed by stimulation with TNF-α (200 ng/ml) for 12, 24 and 48 hours. The same stimuli were applied to cells pretreated with TNF-α (200 ng/ml) for 1 hour at 37° C. in 5% CO2 followed by stimulation with peptides at 100 μM, 10 μM, 1 μM and 0.1 μM for 12, 24 and 48 hours. Then, […] of supernatant was transferred to a white plate and Quanti-Luc reagent was used to measure the luciferase product. As a control, the peptides were tested at the same concentrations, without any pathway activating molecule, to investigate whether they could activate the NFkB pathway. TNF-α (200 ng/mL) was used as a positive control and rIL-10 (0.4 ng/mL) as a negative control. […].

Pep 1-TGF-β1: synthetic peptide with affinity to the TGF-β receptor, SEQ ID N 01, with disulfide bridges (HACFLPASGLCGGGS; disulfide 3-11)
recognition of receptor-bound peptide by anti-TGF-β1 antibody compared to recombinant TGF-β1 [1]: in the same way that the antibody recognized the TGF-β1 recombinant molecule
hydrodynamic radius ([2]; TGF-β1 mimetic peptides in solution): 0.58 nm

Pep 3-IL-10: synthetic peptide with affinity to the Interleukin-10 receptor, SEQ ID NO: 11 (HCFDTQRMEFRMPPGG)
measured hydrodynamic radius [2]: 0.79 nm
induction of NFkB expression by peptides alone [3]: not able to induce any response
modulation of the activation of the IFN signaling pathway [4]: able to modulate the activation of the IFN signaling pathway

Pep 3-TGF-β1: synthetic peptide with affinity to the TGF-β receptor, SEQ ID N 03, free of disulfide bridges (HASESPLKRQSGGGS)
recognition of receptor-bound peptide by anti-TGF-β1 antibody compared to recombinant TGF-β1 [1]: in the same way that the antibody recognized the TGF-β1 recombinant molecule

Pep 4-IL-10: synthetic peptide with affinity to the Interleukin-10 receptor, SEQ ID NO: 12 (HCMTGSRATFPSAPGG)
measured hydrodynamic radius [2]: 0.86 nm
induction of NFkB expression by peptides alone [3]: not able to induce any response
modulation of the activation of the IFN signaling pathway [4]: able to modulate the activation of the IFN signaling pathway

Pep 4-TGF-β1: synthetic peptide with affinity to the TGF-β receptor, SEQ ID N 04, with disulfide bridges (HACKLQRSEPCGGGS; disulfide 3-11 (inferred))
recognition of receptor-bound peptide by anti-TGF-β1 antibody compared to recombinant TGF-β1 [1]: recognized as statistically different

Pep 5-TGF-β1: synthetic peptide with affinity to the TGF-β receptor, SEQ ID N 05, free of disulfide bridges (HASFLPASGLSGGGS)
recognition of receptor-bound peptide by anti-TGF-β1 antibody compared to recombinant TGF-β1 [1]: recognized as statistically different
concentrations with statistically significant activation of the SMAD-dependent pathway (SEAP) [5]: 0.1 μM, 1 μM, 10 μM and 100 μM
concentrations with statistically significant reduction of TLR4 pathway activation [6]: 1 µM and 10 µM
concentrations with statistically significant decrease of NFKB pathway activation vs TNF-α control ([7]; 24 hours): 0.1 μM; 1 μM and 100 μM
concentrations with statistically significant decrease of NFKB pathway activation vs TNF-α control ([7]; 48 hours): 0.1 μM; 1 μM and 10 μM

Pep 6-TGF-β1: synthetic peptide with affinity to the TGF-β receptor, SEQ ID N 06, free of disulfide bridges (HASKLQRSEPSGGGS)
recognition of receptor-bound peptide by anti-TGF-β1 antibody compared to recombinant TGF-β1 [1]: recognized as statistically different
concentrations with statistically significant activation of the SMAD-dependent pathway (SEAP) [5]: 0.1 μM, 10 μM and 100 μM
concentrations with significant maintained activation of the SMAD-dependent pathway (SEAP) ([5]; 24 hours): 100 µM
concentrations with significant maintained activation of the SMAD-dependent pathway (SEAP) ([5]; 48 hours): 0.1 µM and 1 µM
concentrations with statistically significant reduction of TLR4 pathway activation [6]: 1 µM
concentrations with statistically significant decrease of NFKB pathway activation vs TNF-α control ([7]; 24 hours): 0.1 µM

Pep 8-TGF-β1: synthetic peptide with affinity to the TGF-β receptor, SEQ ID N 08, free of disulfide bridges (HASTLPSNTHSGGGS)
recognition of receptor-bound peptide by anti-TGF-β1 antibody compared to recombinant TGF-β1 [1]: recognized as statistically different
concentrations with statistically significant activation of the SMAD-dependent pathway (SEAP) [5]: 1 µM
concentrations with significant maintained activation of the SMAD-dependent pathway (SEAP) ([5]; 24 hours): 1 µM
concentrations with significant maintained activation of the SMAD-dependent pathway (SEAP) ([5]; 48 hours): 0.1 μM, 1 μM and 10 μM
concentration with statistically significant reduction of the NFKB pathway ([7]; cells pretreated with TNF-α, then peptide, 24 hours): 0.1 µM
